CC1(C)COP(=O)(Oc2cccc(OP3(=O)OCC(C)(C)CO3)c2)OC1
solubility (mole fraction)
Conditions	293.15 K	298.15 K	303.15 K	308.15 K	313.15 K	318.15 K	323.15 K	328.15 K	333.15 K
in 1,2-dichloroethane	0.017	0.0199	0.0233	0.0273	0.0317	0.0366	0.0423	0.0491	0.0564
in acetone	0.00607	0.00796	0.0103	0.0131	0.0163	0.0201	0.0251	–	–
in acetonitrile	0.0102	0.0127	0.0153	0.0191	0.0231	0.0279	0.0342	0.0405	0.0491
in chloroform	0.0646	0.07	0.0751	0.0807	0.086	0.0923	0.0984	–	–
in ethanol	0.00179	0.0024	0.00313	0.00413	0.00541	0.00702	0.00902	0.0118	0.0151
in ethyl acetate	0.0008	0.00099	0.00123	0.00154	0.00189	0.00233	0.00284	0.00348	0.0042
in ethyl formate	0.00422	0.00508	0.00607	0.00713	0.00842	0.00988	0.0116	–	–
in methanol	0.0022	0.00357	0.00543	0.0085	0.0129	0.0187	0.0284	–	–
in methyl acetate	0.00229	0.00281	0.00347	0.00422	0.00511	0.0062	0.00745	–	–
in n-hexane	1e-05	2e-05	2e-05	4e-05	6e-05	8e-05	0.00012	–	–
in n-propanol	0.00096	0.00135	0.00187	0.0026	0.00356	0.00495	0.00658	0.00899	0.0118
in toluene	0.00016	0.0002	0.00026	0.00032	0.0004	0.00049	0.00061	0.00076	0.0009
